Results on four compounds are retold here after patent publication US20020068692A1, “Method for the treatment of neurological or neuropsychiatric disorders” (priority 1996, published 2002).

The structures appear in SMILES notation.

The subject of assay [1] is patient with Parkinson's disease. The assay can be described thus: Bright light therapy plus oral atenolol in patients with Parkinson's disease. Type of assay: in vivo, human. As to the method:
One patient, diagnosed 3 years earlier with Parkinson's disease, was exposed to bright light therapy (1500 lux) for two, 1 hour sessions per day, one before retiring and one immediately upon arising to antagonize melatonin secretion. This patient was also prescribed 50 mg of the β-noradrenergic antagonist, Atenolol, before going to bed. The patient's performance on motor tests and their body weight were measured before treatment commenced and 2 weeks later. A second patient, diagnosed with Parkinson's disease at least 10 years previously, was tested on the same tests as the first patient.

Assay [2] deals with 6-OHDA treated rats. The assay can be described thus: Melatonin antagonist therapy in the 6-OHDA rat model (12 hr light/12 hr dark). Type of assay: in vivo. As to the method:
(§1) After several days of control observations, animals were injected bilaterally with 2 μl of an 8 μg/μl solution of 6-OHDA. Body weight was measured each day just after the onset of the light cycle and motor performance was measured by assessing the performance of animals in the open field and on three tests routinely used to assess motor function. Open field activity was measured in a PVC box fitted with infrared sensors. The number of beams broken during a 10 minute test period was registered. The three reflex tests employed were latency to retract a limb elevated 25 cm above the surface of the test area, latency to step up or down from a raised platform when the rear torso was elevated 30 cm above the test area surface and latency to step outside a prescribed area.
The compound ML-23 was tested in the 6-OHDA model described in Example 1 using a 12 hr light/12 hr dark cycle. Briefly, animals were subject to 13 days controlled observation, on day 14 they were injected with 6-OHDA. Animals in the treatment group were given melatonin antagonist (ML-23 in DMSO (3 mg per mL)) therapy (3 mg/kg/ml, interperitoneal injection (ip)) once on the day of 6-OHDA injection and then twice daily for the 3 subsequent days.
A second melatonin antagonist, S-20928, was tested in the 6-OHDA model described in Examples 1 and 7.

The subject of assay [3] is marmosets made Parkinsonian with the neurotoxin MPTP. Kind of assay: Oral ML-23 in marmosets made Parkinsonian with MPTP (blinded experiment). The assay is classed as in vivo. As to the method: The ML-23 formulation was prepared by dissolving ML-23 in 100% DSMO (dimethylsulfoxide 0.7 ml) and then making up to volume (2.3 ml) with soy bean oil for oral administration.

The subject of assay [4] is rats receiving intracerebral injections of 6-OHDA. Kind of assay: Intracerebroventricular melatonin implants in the 6-OHDA rat model. The assay is classed as in vivo. As to the method:
as §1
In order to produce a sustained central release of melatonin, Regulin® pellets were implanted into the left cerebral ventricle of rats at the time of cannulation of the posterior, lateral hypothalamus (PLH). Control rats were implanted with inert nylon pellets of the same dimensions. […] Animals were cannulated and tested as described in Example 1.

Assay [5] relates to rats receiving intraperitoneal injections of MPTP. The assay can be described thus: Intracerebroventricular melatonin implants in the MPTP rat model. The assay is classed as in vivo. As to the method: The rats were implanted with intracerebral melatonin pellets or inert nylon as described in Example 3 with the exception that they were not implanted with intrahypothalamic cannulae. After the control performance was assessed, all animals received intraperitoneal injections of MPTP on day 4 (7 mg/kg/i.p.). Given that the effects of MPTP are less prolonged and traumatic than 6-OHDA, this provided an opportunity to study the phenomenon of recovery. Body weight was measured daily and motor performance was measured 1 h and 2 days after injection.

The test system of assay [6] is patients suffering from Parkinson's disease. Conditions: cited from earlier work.
Where [7] appears, read: ML-23 3 mg/kg ip, once on day of 6-OHDA then twice daily for 3 days.

In the case of `CC(C)NCC(O)COc1ccc(CC(N)=O)cc1` (stereo not shown) [Atenolol], the “time taken to walk a 3 meter path and return” value in assay [1] (first patient, after 2 weeks of bright light (1500 lux, two 1 hour sessions per day) plus Atenolol 50 mg, 31.3 seconds before treatment) turned out to be 13.5 s. In addition, in assay [1] (first patient, after 2 weeks of treatment), the “gain in body weight” value is 3 kilos. Further, in assay [1] (first patient, after treatment), the tremor and rigidity result is given as “improved”. The “memory loss and mental state” value in assay [1] (first patient, after treatment, permitted a decrease of daily 1-dopa dose) is reported as “improved”. Moreover, in assay [1] (first patient, either leg, two weeks after treatment, 58 s (R) 65 s (L) before treatment), the “time taken to lift foot to knee and return it to the floor 10 times” value is 44 s. Besides, the “latency to touch knee with foot and return to the floor 10 times” value in assay [1] (second patient, bright light (1000 lux) 1 hour morning and night plus Atenolal 50 mg, after 5 weeks of treatment, FIG. 26) was “improved dramatically”.

With `COc1ccc2c(c1)C(CCNc1cccc([N+](=O)[O-])c1[N+](=O)[O-])CN2` (stereo not shown) [ML-23], in assay [2] (ML-23 3 mg/kg ip), the “horizontal and vertical movement, particularly at night” value is reported as “significantly improved”; the “overall performance versus vehicle following 6-ODHA injection” value is listed as “performed better than those treated with vehicle”. Besides, in assay [2] (setting [7]), the body weight loss result was “prevented the severe body weight loss” and the “development of severe motor impairment” value is “prevented the development of severe motor impairment”. The survival / recovery entry in assay [2] (ML-23 3 mg/kg ip, 3 out of 7 animals in the 6-ODHA/vehicle group died within 6 days) was “all rats treated with ML-23 recovered”. Further, the “latency to perform the 3 motor tests (retract a limb, step, ambulate)” value in assay [2] (ML-23 3 mg/kg ip, test and recovery periods) is recorded as “improved”. In assay [3] (ML-23 oral 5 mg/kg twice daily for 52 days, vehicle 9.5, p=0.006), the “number of changes in head movement” value worked out at 19.8. Besides, the “horizontal movement at night” value in assay [3] (ML-23 oral 5 mg/kg twice daily for 52 days, vehicle 35 counts, p=0.01) was determined as 80 counts per 30 minutes. Further, the vertical movement in assay [3] (ML-23 oral 5 mg/kg twice daily for 52 days, vehicle 308, p-0.01) is 594 per 30 minutes. Besides, in assay [3] (ML-23 oral, vehicle 1 gram per day, p=0.0001), the “intake of dry food” value was 3 grams per day. In addition, the “psychotic features score (agitation, frantic non-regulatory biting, vocalization, obstinate progression)” value in assay [3] (positive symptoms 48 hours after MPTP treatment, oral ML-23, vehicle score=10, p=0.0005) is reported as 2.5. The “overall clinical rating of Parkinsonian behavior” value in assay [3] (scale 0= normal to 20= severely Parkinsonian, ML-23 oral 5 mg/kg twice daily, vehicle 8.4, p-0.006) was 1.4.

Take `O=C(NCCc1cccc2ccccc12)C1CCC1` [S-20928]: in assay [2] (S-20928 1 mg/kg ip), the “body weight (most resilient consequence of DA degeneration)” value is recorded as “capable of repairing”, the “morbidity of the disease” value is “decreases the morbidity of the disease” and the survival time entry is on record as “increases survival time”.

For `COc1ccc2[nH]cc(CCNC(C)=O)c2c1` [melatonin], the “reduction in open field performance relative to animals implanted with inert nylon” value in assay [4] (melatonin implants after 6-OHDA) is given as “more than twice as much”. Further, the “loss of body weight after 6-OHDA” value in assay [4] (melatonin implants vs nylon implants, day 16 to end of experiment, p=0.0143, FIG. 14) is given as “more severe loss of body weight”. In addition, the “overall change in open field performance and that during the test session” value in assay [4] (melatonin implants vs nylon implants, p=0.0022, FIGS. 15A and B) is given as “significantly worse”. In assay [4] (melatonin implants vs nylon, FIGS. 16-18), the “performance on the 3 motor tests (limb retraction, step, ambulate)” value was “slower than the animals implanted with nylon although not significant”. The body weight gain result in assay [5] (melatonin implants vs nylon, MPTP 7 mg/kg i.p. on day 4, p=0.0201, FIG. 22A/B) is reported as “did not gain as much weight”. Besides, the “ability to step, assessed during the night” value in assay [5] (melatonin implants vs nylon, p=0.0238, FIG. 24) is given as “significant decrement in the ability to step”. Also, the “motor impairment after MPTP (open field locomotion)” value in assay [5] (melatonin pellets vs nylon, overall performance p=0.0344, night trend p=0.0638, FIG. 23A/B) was “increased the motor impairment”. In addition, in assay [6] (daily doses of 1000-1200 mg of melatonin per day, ref (18)), the “amelioration of the clinical features of Parkinson's disease” value is recorded as 20-36%. Moreover, the tremor result in assay [6] (daily doses of 1000-1200 mg of melatonin per day, ref (19)) was “significant reduction in tremor”. Also, in assay [6] (similar doses over the same time period, ref (20)), the “cardinal features of Parkinson's disease, replication study” value is “did not improve the cardinal features”.
